Experimental data: patent publication US20260226048A1, “MULTI-CYCLIC IRAK AND FLT3 INHIBITING COMPOUNDS AND USES THEREOF” (CHILDREN'S HOSPITAL MEDICAL CENTER, priority 2023, published 2026)
Where two headings read alike, the source gives them in different places.

Key:
IRAK1 = target: T1, IRAK1 (Homo sapiens, UniProt P51617); test: RBC HotSpot Kinase Assay, IRAK1; assay type: biochemical; conditions: isolated kinase enzyme, 33P-ATP, P81 filter-binding
T1 construct: purchased Reaction Biology (RBC HotSpot)
T1 sequence (P51617 whole entry): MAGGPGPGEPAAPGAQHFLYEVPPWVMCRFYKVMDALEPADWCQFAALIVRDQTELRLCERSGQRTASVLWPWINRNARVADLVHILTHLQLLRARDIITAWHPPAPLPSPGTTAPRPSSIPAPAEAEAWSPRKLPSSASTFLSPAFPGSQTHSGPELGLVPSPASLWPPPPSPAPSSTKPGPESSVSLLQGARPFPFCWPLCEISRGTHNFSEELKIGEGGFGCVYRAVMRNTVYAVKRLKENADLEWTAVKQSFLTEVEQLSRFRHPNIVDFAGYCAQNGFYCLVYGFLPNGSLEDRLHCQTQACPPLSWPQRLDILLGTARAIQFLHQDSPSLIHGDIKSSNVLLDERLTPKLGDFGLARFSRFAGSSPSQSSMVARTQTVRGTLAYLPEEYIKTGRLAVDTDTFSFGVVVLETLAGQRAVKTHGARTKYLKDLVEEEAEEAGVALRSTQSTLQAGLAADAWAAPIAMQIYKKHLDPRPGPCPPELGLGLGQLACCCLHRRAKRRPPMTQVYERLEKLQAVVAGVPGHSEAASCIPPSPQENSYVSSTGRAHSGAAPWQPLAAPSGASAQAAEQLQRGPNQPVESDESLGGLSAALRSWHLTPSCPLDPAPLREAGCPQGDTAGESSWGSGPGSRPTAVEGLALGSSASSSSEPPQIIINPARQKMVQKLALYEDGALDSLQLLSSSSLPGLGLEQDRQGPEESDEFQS
In short: (§1)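 Reactions ran in 20 mM Hepes (pH 7.5) containing 10 mM MgCl2, 1 mM EGTA, 0.1 mM Na3VO4, 2 mM DTT, 0.02 mg/ml BSA, 0.01% Brij35 and 1% DMSO, plus required cofactors. Functional activity readout on the expressible enzyme form, sometimes C-terminally truncated or lacking receptor regulatory regions.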

IRAK4 = target: T2, IRAK4 (Homo sapiens, UniProt Q9NWZ3); test: RBC HotSpot Kinase Assay, IRAK4; assay type: biochemical; design: purchased Reaction Biology (RBC HotSpot); conditions: isolated kinase enzyme, 33P-ATP, P81 filter-binding
T2 sequence (Q9NWZ3 1-460): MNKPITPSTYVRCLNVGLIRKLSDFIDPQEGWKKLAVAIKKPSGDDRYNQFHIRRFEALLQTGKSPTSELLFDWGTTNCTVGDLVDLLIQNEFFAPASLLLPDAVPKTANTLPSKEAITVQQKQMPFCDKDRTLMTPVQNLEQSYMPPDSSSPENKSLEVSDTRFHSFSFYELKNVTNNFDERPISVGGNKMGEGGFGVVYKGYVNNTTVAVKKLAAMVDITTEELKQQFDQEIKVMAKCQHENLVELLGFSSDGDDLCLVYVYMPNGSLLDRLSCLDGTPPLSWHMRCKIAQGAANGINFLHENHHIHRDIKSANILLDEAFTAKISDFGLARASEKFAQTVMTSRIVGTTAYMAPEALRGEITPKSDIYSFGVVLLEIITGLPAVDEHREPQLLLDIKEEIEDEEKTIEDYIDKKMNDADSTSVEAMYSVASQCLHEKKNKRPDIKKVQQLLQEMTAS
In short: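 Radiometric filter-binding activity assay with isolated recombinant kinase (construct may be truncated or catalytic domain only) in 20 mM Hepes pH 7.5, 10 mM MgCl2, 1 mM EGTA, 2 mM DTT, 1% DMSO. Compound preincubated 20 min with kinase/substrate; reaction started with 33P-ATP, run 2 h at room temperature.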

MOLM14 D835Y cells = test: MOLM14 D835Y cell viability assay (Cell Titer Glo); assay type: cell-based; conditions: Homo sapiens, MOLM-14, 48 h, cell viability, Cell Titer Glo, 48 hours; read-out: MOLM14 D835Y IC50
In short: (§2)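 Luminescent ATP read-out (CellTiter-Glo, 15 min room temperature) taken 48 h after compound addition. Cells were MOLM14 carrying FLT3 D835Y or F691L mutations, plated at 1000 cells per well.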

FLT3 = target: T3, FLT3 (Homo sapiens, UniProt P36888); test: RBC HotSpot Kinase Assay, FLT3; assay type: biochemical; design: purchased Reaction Biology (RBC HotSpot); conditions: isolated kinase enzyme, 33P-ATP, P81 filter-binding
T3 sequence (P36888 27-993): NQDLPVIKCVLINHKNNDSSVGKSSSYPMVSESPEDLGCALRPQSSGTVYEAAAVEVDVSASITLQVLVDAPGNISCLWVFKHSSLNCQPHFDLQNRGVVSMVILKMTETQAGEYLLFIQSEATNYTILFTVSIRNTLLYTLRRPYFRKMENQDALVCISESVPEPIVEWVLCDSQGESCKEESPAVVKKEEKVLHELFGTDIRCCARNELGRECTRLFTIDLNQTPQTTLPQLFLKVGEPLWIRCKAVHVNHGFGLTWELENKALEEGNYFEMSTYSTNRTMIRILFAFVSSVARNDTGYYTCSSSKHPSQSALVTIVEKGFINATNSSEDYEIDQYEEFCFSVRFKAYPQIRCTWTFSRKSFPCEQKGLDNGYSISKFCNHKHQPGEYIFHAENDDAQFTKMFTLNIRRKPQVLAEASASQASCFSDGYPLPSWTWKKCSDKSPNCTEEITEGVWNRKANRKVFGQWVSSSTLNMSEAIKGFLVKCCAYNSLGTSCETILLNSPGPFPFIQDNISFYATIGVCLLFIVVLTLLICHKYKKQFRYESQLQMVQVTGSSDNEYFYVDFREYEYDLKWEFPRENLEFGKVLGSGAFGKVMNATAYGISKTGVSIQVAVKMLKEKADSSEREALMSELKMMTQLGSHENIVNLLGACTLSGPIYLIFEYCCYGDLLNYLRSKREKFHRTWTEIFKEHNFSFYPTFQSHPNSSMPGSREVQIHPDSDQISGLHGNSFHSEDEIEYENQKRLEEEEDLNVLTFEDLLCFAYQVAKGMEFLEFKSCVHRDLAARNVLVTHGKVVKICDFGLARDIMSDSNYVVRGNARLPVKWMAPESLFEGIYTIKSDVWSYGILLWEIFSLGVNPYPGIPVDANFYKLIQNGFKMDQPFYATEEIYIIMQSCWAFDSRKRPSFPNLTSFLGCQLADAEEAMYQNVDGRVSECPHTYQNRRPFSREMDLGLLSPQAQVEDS
In short: as §1

[1] = test system: NF-κB-inducible SEAP reporter in THP-1-Blue NF-κB cells; test: NF-kB SEAP reporter assay in THP-1-Blue NF-κB cells; assay type: cell-based; conditions: 24 hours
Experimental: THP-1-Blue NF-κB cells (InvivoGen) carrying a stable integrated NF-κB-inducible secreted embryonic alkaline phosphatase (SEAP) reporter construct were plated at a concentration of 1×10^5 cells per well. The cells were stimulated with Pam3CSK4 (1 ng/mL) or hIL1B (1 ng/mL). After 10-20 minutes, the cells were then treated with vehicle (DMSO) or serial dilutions of the test compounds (10 doses tested for each test compound, with a 1:10 dilution series starting at 1 μM or 3 μM) with a final volume of 200 μL for 24 hours at 37° C. After 24 hours, the cells were centrifuged and 20 μL supernatant was incubated with 180 μL QUANTI-Blue reagent at 37° C. for 30-60 minutes. The levels of NF-κB-induced was measured in a microplate reader at 620 nm.

MOLM14 F691L cells = test: MOLM14 F691L cell viability assay (Cell Titer Glo); assay type: cell-based; conditions: Homo sapiens, MOLM-14; cell viability, Cell Titer Glo, 48 hours; read-out: MOLM14 F691L IC50
In short: as §2

[2] = THP-1-Blue NF-κB cells stimulated with Pam3CSK4 (1 ng/mL), read-out: NF-κB Pam3SCK4 IC50
[3] = THP-1-Blue NF-κB cells stimulated with hIL1B (1 ng/mL), read-out: NF-κB IL1B IC50

| Structure (SMILES) | IC50 (IRAK1) [µM] | IC50 (IRAK4) [µM] | IC50 (MOLM14 D835Y cells) [µM] | IC50 (FLT3) [µM] | IC50 [1, 2] [µM] | IC50 [1, 3] [µM] | IC50 (MOLM14 F691L cells) [µM] |
| --- | --- | --- | --- | --- | --- | --- | --- |
| C[C@@](O)(c1ccc2ncc(-c3ccnc(N[C@H]4CNCC[C@@H]4F)n3)n2c1)C(F)(F)F (single isomer, unassigned) [Compound 27a] | 0.004 | 0.0007 | 0.018 | < 0.0005 | 0.055 | 0.052 |  |
| CC(O)(c1ccc2ncc(-c3nc(N[C@@H]4CCCNC4)ncc3F)n2c1)C(F)(F)F (single isomer, unassigned) [Compound 37a] | 0.002 | 0.002 | 0.032 | < 0.0005 | 0.07 | 0.058 |  |
| COc1cc2ncc(-c3nc(N[C@@H]4CCCNC4)ncc3F)n2nc1C1CC1 [Compound 3a, (R)-4-(6-cyclopropyl-7-methoxyimidazo[1,2-b]pyridazin-3-yl)-5-fluoro-N-(piperidin-3-yl)pyrimidin-2-amine] | 0.002 | < 0.0005 | 0.001 | < 0.0005 | 0.04 | 0.058 | 0.005 |
| F[C@H]1CCNC[C@@H]1Nc1cncc(-c2cnc3cc(OC4CC4)c(C4CC4)nn23)n1 [Compound 13a, 6-(7-cyclopropoxy-6-cyclopropylimidazo[1,2-b]pyridazin-3-yl)-N-((3S,4S)-4-fluoropiperidin-3-yl)pyrazin-2-amine] | 0.055 | 0.005 | 0.115 | < 0.0005 | 0.512 | 0.334 |  |
| COc1cc2ncc(-c3ccnc(N[C@H]4CNCC[C@@H]4F)n3)n2nc1C1CC(F)(F)C1 [Compound 19a, 4-(6-(3,3-difluorocyclobutyl)-7-methoxyimidazo[1,2-b]pyridazin-3-yl)-N-((3S,4S)-4-fluoropiperidin-3-yl)pyrimidin-2-amine] | 0.07 | 0.013 | 0.051 | < 0.0005 | 0.701 | 0.567 |  |
| COc1cc2ncc(-c3nc(N[C@@H]4CCCNC4)ncc3F)n2nc1C1CC(F)(F)C1 [Compound 51a, (R)-4-(6-(3,3-difluorocyclobutyl)-7-methoxyimidazo[1,2-b]pyridazin-3-yl)-5-fluoro-N-(piperidin-3-yl)pyrimidin-2-amine] | 0.003 | 0.003 | 0.009 | < 0.0005 | 0.136 | 0.135 |  |
| COc1cc2ncc(-c3nc(N[C@H]4CNCC[C@@H]4F)ncc3F)n2nc1N1CCCC1=O [Compound 108a, 1-(3-(5-fluoro-2-(((3S,4S)-4-fluoropiperidin-3-yl)amino)pyrimidin-4-yl)-7-methoxyimidazo[1,2-b]pyridazin-6-yl)pyrrolidin-2-one] | 0.241 | 0.057 | 0.08 | 0.002 |  |  | 0.798 |
| COc1cc2ncc(-c3ccnc(N[C@H]4CNCC[C@@H]4F)n3)n2nc1C1CCO1 (stereo partly drawn) [Compound 109a, N-((3S,4S)-4-fluoropiperidin-3-yl)-4-(7-methoxy-6-(oxetan-2-yl)imidazo[1,2-b]pyridazin-3-yl)pyrimidin-2-amine] | 0.239 | 0.004 | 0.028 | 0.001 |  |  | 0.318 |
| COc1cc2ncc(-c3nc(N[C@@H]4CCCNC4)ncc3F)n2nc1N1CCCS1(=O)=O [Compound 110a, (R)-2-(3-(5-fluoro-2-(piperidin-3-ylamino)pyrimidin-4-yl)-7-methoxyimidazo[1,2-b]pyridazin-6-yl)isothiazolidine 1,1-dioxide] | 0.023 | 0.02 | 0.018 | < 0.0005 |  |  | 0.113 |
| Fc1cnc(N[C@H]2CNCC[C@@H]2F)nc1-c1cnc2cnc(C3COC3)cn12 [Compound 117a, 5-fluoro-N-((3S,4S)-4-fluoropiperidin-3-yl)-4-(6-(oxetan-3-yl)imidazo[1,2-a]pyrazin-3-yl)pyrimidin-2-amine] | 0.397 | 0.045 | 0.159 | 0.003 |  |  | 1.59 |
| Fc1cnc(N[C@@H]2CCCNC2)nc1-c1cnc2cnc(C3COC3)cn12 [Compound 118a, (R)-5-fluoro-4-(6-(oxetan-3-yl)imidazo[1,2-a]pyrazin-3-yl)-N-(piperidin-3-yl)pyrimidin-2-amine] | 0.732 | 0.155 | 0.179 | 0.007 |  |  | 3.18 |
| COc1cc2ncc(-c3nc(N[C@H]4CNC[C@@H]4F)ncc3F)n2nc1N1CCS(=O)(=O)CC1 [Compound 123a, 4-(3-(5-fluoro-2-(((3S,4S)-4-fluoropyrrolidin-3-yl)amino)pyrimidin-4-yl)-7-methoxyimidazo[1,2-b]pyridazin-6-yl)thiomorpholine 1,1-dioxide] | 0.043 | 0.005 | 0.063 | < 0.0005 |  |  | 1.01 |
| COc1cc2ncc(-c3nc(N[C@@H]4CCCNC4)ncc3F)n2nc1N1CCS(=O)(=O)CC1 [Compound 124a, (R)-4-(3-(5-fluoro-2-(piperidin-3-ylamino)pyrimidin-4-yl)-7-methoxyimidazo[1,2-b]pyridazin-6-yl)thiomorpholine 1,1-dioxide] | 0.123 | 0.138 | 0.09 | 0.002 |  |  | 1.13 |
| COc1cc2ncc(-c3ccnc(N[C@H]4CNCC[C@@H]4F)n3)n2nc1[C@H]1C[C@@H](O)C1 [Compound 127a, (Cis)-3-(3-(2-(((3S,4S)-4-fluoropiperidin-3-yl)amino)pyrimidin-4-yl)-7-methoxyimidazo[1,2-b]pyridazin-6-yl)cyclobutan-1-ol] | 0.02 | < 0.0005 | 0.008 | < 0.0005 |  |  | 0.113 |
